Results: patent US20170252298A1, “Performance-Enhancing Nasal Irrigation” (Backed-by-Science, Inc., priority 2014, published 2017)
Where “and” joins values, the source holds several entries; their conditions need not be identical. Equal entries are not always repeated.

System: nasal cilia
Test: nasal ciliary beat frequency (CBF), whole field analysis over time
Type: cell-based
Design: Mean CBF (WFA): unit: Hz
Protocol: The ATP concentration inside the cell is typically 1-10 millimolar (mM). We started with an ATP concentration of 1 mg/ml based on literature data and from testing done by Dr. James Palmer at University of Pennsylvania on ATP concentration for increasing nasal ciliary beat frequency. […] 1 mg/ml from the below charts=1 mg/ml=1 gram per liter=1/507 g/mol=2 mM. Most intracellular ATP concentrations in animals fall within the range of 0.5-10 mM. [table]

[1] = Plate 1, elapsed 0:00:00, treatment of plate not stated
[2] = Plate 2, elapsed 0:00:00, ATP 1 mg/ml
[3] = Plate 2, elapsed 0:00:10, ATP 1 mg/ml
[4] = Plate 2, elapsed 0:00:30, ATP 1 mg/ml
[5] = Plate 2, elapsed 0:00:40, ATP 1 mg/ml
[6] = Plate 2, elapsed 0:00:50, ATP 1 mg/ml
[7] = Plate 2, elapsed 0:01:00, ATP 1 mg/ml
[8] = Plate 2, elapsed 0:01:10, ATP 1 mg/ml
[9] = Plate 2, elapsed 0:01:20, ATP 1 mg/ml
[10] = Plate 2, elapsed 0:01:30, ATP 1 mg/ml
[11] = Plate 2, elapsed 0:01:40, ATP 1 mg/ml
[12] = Plate 2, elapsed 0:01:50, ATP 1 mg/ml
[13] = Plate 2, elapsed 0:02:00, ATP 1 mg/ml
[14] = Plate 2, elapsed 0:02:10, ATP 1 mg/ml
[15] = Plate 2, elapsed 0:02:20, ATP 1 mg/ml
[16] = Plate 2, elapsed 0:02:30, ATP 1 mg/ml
[17] = Plate 2, elapsed 0:02:40, ATP 1 mg/ml
[18] = Plate 2, elapsed 0:02:50, ATP 1 mg/ml
[19] = Plate 2, elapsed 0:03:00, ATP 1 mg/ml
[20] = Plate 2, elapsed 0:03:10, ATP 1 mg/ml
[21] = Plate 2, elapsed 0:03:20, ATP 1 mg/ml
[22] = Plate 2, elapsed 0:03:30, ATP 1 mg/ml
[23] = Plate 2, elapsed 0:03:40, ATP 1 mg/ml
[24] = Plate 2, elapsed 0:03:50, ATP 1 mg/ml
[25] = Plate 2, elapsed 0:04:00, ATP 1 mg/ml
[26] = Plate 2, elapsed 0:04:10, ATP 1 mg/ml
[27] = Plate 2, elapsed 0:04:20, ATP 1 mg/ml
[28] = Plate 2, elapsed 0:04:30, ATP 1 mg/ml
[29] = Plate 2, elapsed 0:04:40, ATP 1 mg/ml
[30] = Plate 2, elapsed 0:04:50, ATP 1 mg/ml
[31] = Plate 2, elapsed 0:05:00, ATP 1 mg/ml
[32] = Plate 2, elapsed 0:05:10, ATP 1 mg/ml
[33] = Plate 2, elapsed 0:05:20, ATP 1 mg/ml
[34] = Plate 2, elapsed 0:05:30, ATP 1 mg/ml
[35] = Plate 2, elapsed 0:05:40, ATP 1 mg/ml
[36] = Plate 2, elapsed 0:05:50, ATP 1 mg/ml
[37] = Plate 2, elapsed 0:06:00, ATP 1 mg/ml
[38] = Plate 2, elapsed 0:06:10, ATP 1 mg/ml
[39] = Plate 2, elapsed 0:06:20, ATP 1 mg/ml
[40] = Plate 2, elapsed 0:06:30, ATP 1 mg/ml
[41] = Plate 2, elapsed 0:06:40, ATP 1 mg/ml
[42] = Plate 2, elapsed 0:06:50, ATP 1 mg/ml
[43] = Plate 2, elapsed 0:07:00, ATP 1 mg/ml
[44] = Plate 2, elapsed 0:07:10, ATP 1 mg/ml
[45] = Plate 2, elapsed 0:07:20, ATP 1 mg/ml
[46] = Plate 2, elapsed 0:07:30, ATP 1 mg/ml
[47] = Plate 2, elapsed 0:07:40, ATP 1 mg/ml
[48] = Plate 2, elapsed 0:07:50, ATP 1 mg/ml
[49] = Plate 2, elapsed 0:08:00, ATP 1 mg/ml

## Nc1ncnc2c1ncn2[C@@H]1O[C@H](COP(=O)(O)OP(=O)(O)OP(=O)(O)O)[C@@H](O)[C@H]1O [ATP, adenosine triphosphate]
[1]
  Active Area: 82.86% and 60.42% and 53.54%
  Mean CBF (WFA): 6.75 and 6.14 and 5.59
[2]
  Active Area: 22.19%
  Mean CBF (WFA): 8.06
[3]
  Active Area: 44.1%
  Mean CBF (WFA): 7.41
[4]
  Active Area: 49.49%
  Mean CBF (WFA): 7.42
[5]
  Active Area: 49.6%
  Mean CBF (WFA): 7.5
[6]
  Active Area: 48.61%
  Mean CBF (WFA): 7.55
[7]
  Active Area: 42.47%
  Mean CBF (WFA): 7.66
[8]
  Active Area: 43.64%
  Mean CBF (WFA): 7.75
[9]
  Active Area: 45.62%
  Mean CBF (WFA): 7.82
[10]
  Active Area: 36.91%
  Mean CBF (WFA): 7.92
[11]
  Active Area: 40.43%
  Mean CBF (WFA): 7.99
[12]
  Active Area: 43.13%
  Mean CBF (WFA): 7.95
[13]
  Active Area: 41.96%
  Mean CBF (WFA): 8.01
[14]
  Active Area: 43.36%
  Mean CBF (WFA): 8
[15]
  Active Area: 42.03%
  Mean CBF (WFA): 8.03
[16]
  Active Area: 15.64%
  Mean CBF (WFA): 7.96
[17]
  Active Area: 37.46%
  Mean CBF (WFA): 8.02
[18]
  Active Area: 40.07%
  Mean CBF (WFA): 8.02
[19]
  Active Area: 38.29%
  Mean CBF (WFA): 8.08
[20]
  Active Area: 38.85%
  Mean CBF (WFA): 8.1
[21]
  Active Area: 37.75%
  Mean CBF (WFA): 8.09
[22]
  Active Area: 36.48%
  Mean CBF (WFA): 8.07
[23]
  Active Area: 37.41%
  Mean CBF (WFA): 8.07
[24]
  Active Area: 36.73%
  Mean CBF (WFA): 8.12
[25]
  Active Area: 37.22%
  Mean CBF (WFA): 8.11
[26]
  Active Area: 38.13%
  Mean CBF (WFA): 8.09
[27]
  Active Area: 36.96%
  Mean CBF (WFA): 8.12
[28]
  Active Area: 36.02%
  Mean CBF (WFA): 8.12
[29]
  Active Area: 36.21%
  Mean CBF (WFA): 8.06
[30]
  Active Area: 34.77%
  Mean CBF (WFA): 8.05
[31]
  Active Area: 37.11%
  Mean CBF (WFA): 8.12
[32]
  Active Area: 34.86%
  Mean CBF (WFA): 8.08
[33]
  Active Area: 35.53%
  Mean CBF (WFA): 8.09
[34]
  Active Area: 36.15%
  Mean CBF (WFA): 8.22
[35]
  Active Area: 38.41%
  Mean CBF (WFA): 8.15
[36]
  Active Area: 38.05%
  Mean CBF (WFA): 8.13
[37]
  Active Area: 39.37%
  Mean CBF (WFA): 8.17
[38]
  Active Area: 39.15%
  Mean CBF (WFA): 8.14
[39]
  Active Area: 37.86%
  Mean CBF (WFA): 8.15
[40]
  Active Area: 31.72%
  Mean CBF (WFA): 8.11
[41]
  Active Area: 35.94%
  Mean CBF (WFA): 8.21
[42]
  Active Area: 36.95%
  Mean CBF (WFA): 8.22
[43]
  Active Area: 28.86%
  Mean CBF (WFA): 8.23
[44]
  Active Area: 36.92%
  Mean CBF (WFA): 8.2
[45]
  Active Area: 38.3%
  Mean CBF (WFA): 8.24
[46]
  Active Area: 37.18%
  Mean CBF (WFA): 8.25
[47]
  Active Area: 36.54%
  Mean CBF (WFA): 8.23
[48]
  Active Area: 35.67%
  Mean CBF (WFA): 8.22
[49]
  Active Area: 37.37%
  Mean CBF (WFA): 8.17
